Measured values as given in publication PMC3648344 (BMC Structural Biology, 2013).

Target: T1, ecMnmC (Escherichia coli, UniProt P77182)
T1 construct: gene mnmC; full-length bifunctional MnmC, 668 residues, ~75 kDa monomer; N-terminal His6 tag removed with thrombin; pET30a-LIC, expressed in E. coli BL21(DE3)
T1 sequence (P77182 1-668): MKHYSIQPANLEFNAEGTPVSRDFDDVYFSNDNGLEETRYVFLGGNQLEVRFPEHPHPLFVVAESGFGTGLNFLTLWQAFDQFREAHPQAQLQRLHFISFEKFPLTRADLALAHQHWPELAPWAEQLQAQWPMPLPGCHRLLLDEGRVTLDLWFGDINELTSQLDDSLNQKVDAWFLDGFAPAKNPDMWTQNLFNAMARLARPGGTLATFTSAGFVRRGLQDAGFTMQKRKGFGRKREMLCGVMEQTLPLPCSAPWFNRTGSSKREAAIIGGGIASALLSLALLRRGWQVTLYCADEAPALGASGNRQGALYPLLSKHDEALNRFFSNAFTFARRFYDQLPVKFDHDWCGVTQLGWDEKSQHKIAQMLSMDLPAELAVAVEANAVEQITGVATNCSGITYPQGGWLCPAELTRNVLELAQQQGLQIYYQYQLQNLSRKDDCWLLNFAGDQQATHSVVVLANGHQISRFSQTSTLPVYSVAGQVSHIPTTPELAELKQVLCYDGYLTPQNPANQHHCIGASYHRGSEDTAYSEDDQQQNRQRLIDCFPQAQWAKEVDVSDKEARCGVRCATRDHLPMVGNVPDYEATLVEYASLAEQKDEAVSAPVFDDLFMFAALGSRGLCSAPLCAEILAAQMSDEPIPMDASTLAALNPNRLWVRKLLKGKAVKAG
Test: X-ray crystal structure, […] Å
Assay type: binding

| Structure (SMILES) | X-ray crystal structure, 2.55 Å (crystals soaked with 5 mM SAM, FAD bound, MnmC2 domain site) | X-ray crystal structure, 2.55 Å (co-purified FAD, none added, SAM bound, MnmC1 domain site) |
| --- | --- | --- |
| C[S+](CC[C@H](N)C(=O)O)C[C@H]1O[C@@H](n2cnc3c(N)ncnc32)[C@H](O)[C@@H]1O (some centres unmarked) [SAM] | Our structures show that ecMnmC and ypMnmC bind SAM in an almost identical manner |  |
| Cc1cc2nc3c(=O)[nH]c(=O)nc-3n(C[C@H](O)[C@H](O)[C@H](O)COP(=O)(O)OP(=O)(O)OC[C@H]3O[C@@H](n4cnc5c(N)ncnc54)[C@H](O)[C@@H]3O)c2cc1C [FAD] |  | All three MnmC structures unambiguously exhibited bound FAD (Figure 4A) |
